Peptide text beside a SMILES is read from it. * marks the point of attachment. code Z = not defined here; CH2F = FC*
Experiments:
[1] = molecular target: T1, human recombinant caspase-2 (Homo sapiens, UniProt P42575); test: In vitro caspase-2 cleavage assay (Ac-VDVAD-AMC substrate); assay type: biochemical; set-up: key to Group (pattern of caspase-2 inhibition curve): group 1 referred to inhibitors that were relatively more active than VDVAD(SEQ ID NO:9)-based inhibitors against caspase-2 at lower doses, but with similar IC50 values; group 2 referred to VDVAD(SEQ ID NO:9)-based inhibitor with characteristic sigmoid dose-response; group 3 referred to pentapetidic-based inhibitors that were less active than VDVAD(SEQ ID NO:9)-based inhibitors against caspase-2 at lower doses and that exhibited higher IC50; conditions: for VDVAD-AMC cleavage by caspase-2: recombinant caspase-2, FIG. 16; for Group (pattern of caspase-2 inhibition curve) / IC50: Table 4; for IC50: 30 min pre-incubation, 2 h at 37° C.
T1 construct: purchased BIOMOL
T1 sequence (P42575 170-333 limits assumed): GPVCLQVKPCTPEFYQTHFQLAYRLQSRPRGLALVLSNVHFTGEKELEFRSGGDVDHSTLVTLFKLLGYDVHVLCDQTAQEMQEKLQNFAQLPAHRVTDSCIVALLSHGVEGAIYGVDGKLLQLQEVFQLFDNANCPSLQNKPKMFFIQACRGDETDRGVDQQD
T1 sequence (P42575 348-452 limits assumed): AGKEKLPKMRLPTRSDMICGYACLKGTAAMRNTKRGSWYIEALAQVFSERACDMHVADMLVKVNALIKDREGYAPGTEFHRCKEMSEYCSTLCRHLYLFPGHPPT
Procedure: Newly designed inhibitors (Ac-LDEAD(SEQ ID NO:7)-CHO, Ac-VDEAD(SEQ ID NO:1)-CHO . . . ) were compared to Ac-VDVAD(SEQ ID NO:9)-CHO in in vitro caspase-2 cleavage assay according to the following protocol (FIG. 8). Human recombinant caspases (25-50 U; QuantiZyme™ Assay System, BIOMOL, Plymouth, Pa., USA) were pre-incubated 30 min with inhibitors (0.005-2 μM) in final 100 μl final assay buffer (50 mM HEPES, pH 7.4, 100 mM NaCl, 0.1% CHAPS, 10 mM DTT, 1 mM EDTA, 10% glycerol) and then mixed with 200 μM of the fluorogenic caspase substrates (BIOMOL) Ac-VDVAD(SEQ ID NO:9)-AMC. An IC50 value corresponding to the concentration that could inhibit 50% of caspase activity was determined from the dose-response sigmoid curve. The cleavage of AMC-based substrates by human recombinant caspases 1-10 was measured after 2 h at 37° C. on a fluorescence microplate reader by monitoring emission at 510 nm upon excitation at 405 nm.

[2] = test system: neonatal ischemic brain injury; test: Perinatal transient unilateral focal ischemia model in 7 day-old rat pups; assay type: in vivo; conditions: for reduction of infarct volume: 48 h
Procedure: Newborn Wistar rats (dam plus 9 pups per litter) were obtained from Janvier (Le Genest-St-Isle, France) when the pups were 3-4 days of age. The pups were housed with their dam under a 12:12 h light-dark cycle with food and water freely available. Animal experimentation was conducted according to the French and European Community guidelines for the care and use of experimental animals. Rat pups were anesthetized with an intraperitoneal injection of chloral hydrate (350 mg/kg). Ischemia was performed in 7 day-old rats (17-21 g), as previously described (Renolleau et al., 1998). Anesthetized rats were positioned on their back and a median incision was made in the neck to expose the left common carotid artery. Rats were then placed on the right side and an oblique skin incision was made between the ear and the eye. After excision of the temporal muscle, the cranial bone was removed from the frontal suture to a level below the zygomatic arch. […] After this procedure, a clip was placed to occlude the left common carotid artery. Rats were then placed in an incubator to avoid hypothermia. After 50 min, the clip was removed. Carotid blood flow restoration was verified with the aid of a microscope. Neck and cranial skin incisions were then closed. During the surgical procedure, body temperature was maintained at 37-38° C. Pups were transferred in an incubator (32° C.) until recovery then after to their dams.
Compound was administered intraperitoneally or intraveinously at 1 h after ischemia (corresponding to the reperfusion). Control animals received an equivalent volume of vehicle required to solubilize the pentapeptidic caspase inhibitor. Rats were killed 48 hours after reperfusion and brains were removed. The infarct lesion (pale zone) was visually scored by an observer blinded to the treatment of animals. Brains without a clear ischemic pale zone were observed under a magnifying glass.
Sections from anterior striatum to posterior hippocampus (corresponding to plates 9 to 27 in Paxinos' rat brain atlas) were selected, taken at equally spaced 0.5-mm intervals. The lesion areas were measured on cresyl violet-stained sections using an image analyzer, and the distances between respective coronal sections were used to calculate the infarct volume.

[3] = test system: global cerebral ischemia, hippocampus CA1 cell death; test: Global cerebral ischemia by four-vessel occlusion (4VO) in young-adult rats; assay type: in vivo, rat; conditions: single i.c.v. 60 ng, 72 h post-ischemia
Procedure: Global cerebral ischemia was induced by four-vessel occlusion (4V0) according a Pulsinelli's derived method (Pulsinelli and Buchman, 1988) in young-adult rats (males Wistar aged of 10-12 weeks, 320 g+/−10 g; Janvier). The first day, head of anesthetised rats was positionned in stereotaxic ear bars and tilted down at approximatively 30° to the horizontal. After a midline incision at the level of cervical spine, both vertebral arteries were exposed under microscope and then coagulated by electocautery needle through the alar foramina at the level of first cervical vertebra. Both common carotides were then exposed 24 h later and clamped for 20-30 min (rats fell in the coma when electrocautherisation of both vertebral arteries have been well performed). Carotid arteries were then declamped to allow blood flow reperfusion. Vehicle and SEQ8 were administrated at the level of the left cerebral ventricule in the first fifth minutes of ischemia (carotides occlusion). Rats were let in their cage with waer et food ad libitum.
The selective loss of vulnerable cells and SEQ8's effects have been evaluated at 72 h. Rats were sacrificed and brain fixed by trans-cardiac perfusion with paraformaldehyde. Frontal brain slices (25 μm) were strained by Cresyl-Violet or co-stained by Hoechst 33342 and Fluorojade B to assess cell death in the hippocampus and in the cortex. […] Fluoro JadeB (green fluorescence) intake is possible only in cells which have permeable plasma membrane, thus more characteristic of dying cells. Hoechst 33342 (blue fluorescence) label nuclei all cells and allows to appreciate nuclear morphology changes during cell death. Cells are counted in three successive slices at such levels in the hippocampus (CA1) in the left brain hemisphere. […] Both Fluoro Jade B and Hoechst stained slices were observed under a Leica DMIRB inverted fluorescence microscope equipped with ×40 objective and LEICA IM1000/Qfluorobase software (BP 340-80 excitation filter combined with LP 425 emission filter for Hoechst; BP 480/40 excitation filter combined with BP 515-560 emission filter for Fluoro Jade B).

2-Quinolinylcarbonyl-L-Valinyl-L-Aspartyl (methyl ester)-L-Vanilyl-L-Alaninyl-L-Aspartyl (methyl ester) 2,6-difluorophenyl ester [SEQ8]
VDVAD-AMC cleavage by caspase-2 [1]: blocked
animals with partially or very marked reduced infarct ([2]; 1 mg/kg i.v. (FIG. 18) 1 h post-ischemia): ~50%
animals with partially or very marked reduced infarct ([2]; 0.1 or 1 mg/kg i.p. 1 h post-ischemia): more than 50%
reduction of infarct volume ([2]; single dose 1 mg/kg i.v. (FIG. 18) 1 h post-ischemia): at least 30%
reduction of infarct volume ([2]; single dose 0.1 or 1 mg/kg i.p. 1 h post-ischemia): 44-53%
Cresyl-violet staining intensity [3]: partially restored
abnormal nuclei in CA1 [3]: less abnormal nuclei
cells incorporating Fluorojade B in CA1 [3]: 10-20%

CC(=O)N[C@@H](CC(C)C)C(=O)N[C@@H](CC(=O)O)C(=O)N[C@@H](CCC(=O)O)C(=O)N[C@@H](CO)C(=O)N[C@H](C=O)CC(=O)O [Compound 1, Ac-LDESD-cho, reference compound] (Ac-LDESD-aldehyde)
Group (pattern of caspase-2 inhibition curve) [1]: 2/3
IC50 [1]: 300 ± 20 nM

CC(=O)N[C@@H](Cc1ccccc1)C(=O)N[C@@H](CC(=O)O)C(=O)N[C@@H](CCC(=O)O)C(=O)N[C@@H](CO)C(=O)N[C@H](C=O)CC(=O)O [Compound 3, Ac-FDESD(SEQ ID NO:6)-cho] (Ac-FDESD-aldehyde)
Group (pattern of caspase-2 inhibition curve) [1]: 3

CC(=O)N[C@H](C(=O)N[C@@H](CC(=O)O)C(=O)N[C@@H](CCC(=O)O)C(=O)N[C@@H](CO)C(=O)N[C@H](C=O)CC(=O)O)C(C)C [Compound 7, Ac-VDESD(SEQ ID NO:4)-cho] (Ac-VDESD-aldehyde)
Group (pattern of caspase-2 inhibition curve) [1]: 3

CC(=O)N[C@@H](CC(C)C)C(=O)N[C@@H](CC(=O)O)C(=O)N[C@@H](CCC(=O)O)C(=O)NCC(=O)N[C@H](C=O)CC(=O)O [Compound 26, Ac-LDEGD(SEQ ID NO:2)-cho] (Ac-LDEGD-aldehyde)
Group (pattern of caspase-2 inhibition curve) [1]: 3

CC(=O)N[C@@H](CC(C)C)C(=O)N[C@@H](CC(=O)O)C(=O)N[C@@H](CCC(=O)O)C(=O)N[C@@H](CCCCN)C(=O)N[C@H](C=O)CC(=O)O [Compound 27, Ac-LDEKD(SEQ ID NO:5)-cho] (Ac-LDEKD-aldehyde)
Group (pattern of caspase-2 inhibition curve) [1]: 3
IC50 [1]: 300 ± 5 nM

Z-VDVAD(SEQ ID NO:9)-FMK ({code Z}-VDVAD-CH2F; reading uncertain) [reference compound]
VDVAD-AMC cleavage by caspase-2 [1]: blocked

z-LEHD-fmk ({code Z}-LEHD-CH2F; reading uncertain; also: printed as z-LEHD-fmk) [reference compound]
VDVAD-AMC cleavage by caspase-2 [1]: not

Reference: US8324173B2, “Peptides useful as dual caspase-2/-6 inhibitors and their biological applications” (Chiesi Farmaceutici S.p.A., priority 2004, dated 2012)
